According to US4405643A, “Treatment of acute pulmonary edema with arginine esters” (Italfarmaco S.p.A., priority 1979, dated 1983):
Counter-ions that a name gives are not always drawn.

What was measured:
[1] = Protection against anaphylactic shock (horse serum); type: in vivo, male albino guinea pigs; conditions: parenteral, with horse serum challenge, after 12 h
Protocol: The anaphylactic shock has been induced according to the method of S. M. Feinberg, M. Pharmacol. Exp. Therapeut., 99, 195 (1950). There have been used male albino guinea pigs of average weight, 350±20 grams previously stabilized for a period of ten days at a temperature of 21°±1° C., under conditions of controlled diet and water "ad libitum". Three days before the beginning of the experiment, the animals are divided in groups of ten for the purpose of achieving good randomization. Each single dose has been tried on three groups of animals.
The sensitization has been carried out by administration of 1 ml/guinea pig through the endovenous route of horse serum, (whole serum, not treated with preservatives) diluted 1:10 in physiological saline solution. After 14 days, the solutions of the substances being tested and the samples of physiological solutions for use with the controls are administered through the parenteral route. Simultaneously, 1 ml/guinea pig of horse serum, undiluted is administered, this substance being used as the agent which prompts the anaphylaxis. The percentage of mortality is determined after 12 hours.

[2] = tested on: Fibrin Degradation Products; assay: Inhibition of hyperfibrinolysis caused by urokinase (F.D.P., staphylococcal clumping test); type: in vivo, Wistar rats; conditions: parenteral, 30 min before urokinase 2500 U.I/rat
Protocol: The induction of hyperfibrinolysis state is caused by administration of urokinase. The determination of the inhibition is carried out by determination of the F.D.P. value, that is Fibrin Degradation Products, according to the procedure of J. Hawiger et al, J. Lab. Clin. Med. 75, 93 (1970), by means of the staphylococcal clumping test (Boehringer Mannheim GmbH test).
There are used Wistar rats of 300 grams ±10 by weight previously stabilized for a period of ten days at a temperature of 21°±1° C., under conditions of controlled diet and water "ad libitum". Twenty-four hours prior to the beginning of the experiment, the animals are divided in groups of ten for the purpose of achieving randomization. Each individual dose is tried on three groups of animals.
At the beginning of the test, zero time, the compounds being tested are administered through the parenteral route. In the case of the control animals, at the same time an equal volume of a physiological saline solution is administered except that some blood is removed by means of a cardiac puncture, for the purpose of determining the basal fibrinolytic activity. After 30 minutes, human urokinase (the composition marketed by Ukidan-Serono) is administered intravenously in the amount of 2500 U.I/rat. After an additional period of ten minutes, blood is removed by means of a cardiac puncture for the final determination of F.D.P., a determination which is expressed in […].

[3] = Protection against shock caused by endotoxins (lipopolysaccharide B from S. Enteritidis); type: in vivo, male rats of Wistar type; conditions: parenteral, 1 h before endotoxin, after 24 h
Excerpt: Endotoxin-induced shock has been produced according to the method reported by A. Bertelli and L. Donati, in the publication "The Influence of Some Enzymes and Enzymes Inhibitors in Shock", published in "SHOCK Biochemical,Pharmaceutical and Clinical Aspects"; A. Bertelli and N. Back Editors, Advances in Experimental Medicine and Biology; Volume 9, Plenum Press New York - London 1970, page 215. By way of comparison, there has been used a substance of well known therapeutical activity, specifically aprotinine, the commercial products marketed by Farbenfabriken Bayer, under the name "Trasylol". Male rats of Wistar type of 120 grams by weight ±10 have been used. The rats were previously stabilized for a period of ten days at a temperature of 21°±1° C. under a controlled diet and water "ad libitum". Twenty-four hours prior to the test, the animals were divided in groups of ten for the purpose of achieving randomization. Every single dose has been tried on six groups of animals.
Lipopolysaccharide B from S. Enteritidis (Difco Labs.) was used as the endotoxin. This substance was administered in the dose of 10 mg/kg by the endoperitoneal route, one hour after administration of the substance being administered by the parenteral route or in the form of a physiological solution in equal volume per kilogram to the animals being used as control.
The mortality in percent was determined in the animals being tested as compared with the controls after twenty-four hours.

[4] = Protection against pulmonary edema (adrenaline-induced acute edema of the lungs); type: in vivo, male albino rats of Wistar type; conditions: parenteral, 15 min before adrenaline
Protocol: The method of A. M. Rothschild and A. Castania (Arch. Pharmacol., 295, 177 (1976)), has been used to develop the acute edema in the lungs and substances of known therapeutic activity have been used for comparison purpose.
For the test, male albino rats of Wistar type of average weight 250-350 grams, have been used for the test. The rats were stabilized for a period of ten days at a temperature of 21°±1° C., under conditions of controlled diet and water "ad libitum". Prior to the test, the animals were divided into groups of ten for the purpose of achieving good randomization. Each dose was tried on three groups of animals. The animals were anesthetized with pentobarbital in a dose of 30 mg/kg at the beginning of the test. After the animals were in complete narcosis, the following substances were administered by the parenteral route:
1. to the animals as controls, physiological saline solution in the amount of 1 ml/kg,
2. to the animals in the test, a solution of the substance being tested in physiological saline solution in the amount of 1 ml/kg in the doses reported hereinbelow in the table.
After a period of 15 minutes, for the purpose of determining the protective activity of the substances, adrenaline was administered in the amount of 16 γ/kg by the endovenous route and in physiological saline solution, for the purpose of causing acute edema.
After five minutes, the animals were killed by removal of the head, the lungs were removed and the weight of the lungs were determined. The results of the test are reported in Table 1 hereinbelow, together with the concentration of the substances and the relative inhibition of edema in percent.

| Compound | % MORTALITY ([1]; dose 10 mg/kg) [%] | % MORTALITY ([1]; dose 20 mg/kg) [%] | % MORTALITY ([1]; dose 50 mg/kg) [%] | F.D.P. ([2]; dose 5 mg/kg) [milliliters] | F.D.P. ([2]; dose 10 mg/kg) [milliliters] | F.D.P. ([2]; dose 20 mg/kg) [milliliters] | % MORTALITY ([3]; dose 5 mg/kg) [%] | % MORTALITY ([3]; dose 10 mg/kg) [%] | % MORTALITY ([3]; dose 20 mg/kg) [%] | % MORTALITY ([3]; dose 50 mg/kg) [%] | % INHIBITION OF EDEMA ([4]; dose 0.1 mg/kg) [%] | % INHIBITION OF EDEMA ([4]; dose 0.25 mg/kg) [%] | % INHIBITION OF EDEMA ([4]; dose 0.5 mg/kg) [%] | % INHIBITION OF EDEMA ([4]; dose 1 mg/kg) [%] | % INHIBITION OF EDEMA ([4]; dose 2.5 mg/kg) [%] | % INHIBITION OF EDEMA ([4]; dose 5 mg/kg) [%] | % INHIBITION OF EDEMA ([4]; dose 10 mg/kg) [%] | % INHIBITION OF EDEMA ([4]; dose 20 mg/kg) [%] |
| --- | --- | --- | --- | --- | --- | --- | --- | --- | --- | --- | --- | --- | --- | --- | --- | --- | --- | --- |
| CCOC(=O)[C@@H](N)CCCNC(=N)N [L-A.E., LArginine ethyl ester hydrochloride] | 35 | 23 | 9.5 | 0.50 | 0.33 | 0.27 | 51.3 | 48.2 | 37.5 | 25.0 | 3.4 | 32.2 | 33.3 | 55.7 | 47.9 | 41.0 | 38.9 | 39.7 |
| COC(=O)[C@H](N)CCCNC(=N)N [D-A.M., DArginine methyl ester hydrochloride] | 78.8 | 81.0 | 76.3 | 3.10 | 3.03 | 3.16 | 71.2 | 68.5 | 69 | 73 |  |  |  | 16.8 | 11.7 | 15.4 | 4.4 | 6.4 |
